Patent US20070116781A1, “Hydrogen Cyanamide Pesticide Formulations” (priority 2005, published 2007)

Key:
[1] = test system: sicklepod; assay: Herbicidal activity, cyanamide and propionic acid, pre-emergence, covered pots; assay type: in vivo, Senna obtusifolia
Experimental: (§1) The weeds used in these tests were grown from a standard weed seed pack of common annual and perennial weeds representing an extreme weed situation. The weeds included yellow nutsedge (Cyperus esculentus), crabgrass (Digitaria sanguinalis), pigweed (Amaranthus spp.), momingglory (Ipomoea spp.), sicklepod (Senna obtusifolia) and other annual weeds. Observations of the effects on the weed population as a whole were made, and individual observations were made for yellow nutsedge, crabgrass, and sicklepod. Stock solutions of hydrogen cyanamide at 1.25% by weight and propionic acid at 5.0% by weight, both in water, were prepared, the hydrogen cyanamide from a phosphate-buffered 50% aqueous solution. […] Data analyses were performed in the same manner as Example 1. The results expressed in weeds per pot are listed in Table V for all weeds, Table VI for yellow nutsedge, Table VII for crabgrass, and Table VIII for sicklepod, all at various application rates for both hydrogen cyanamide and propionic acid.

[2] = test system: crabgrass; assay: Herbicidal activity, cyanamide and citric acid, pre-emergence, covered pots; assay type: in vivo, Digitaria sanguinalis
Experimental: (§2) The weeds used in these tests were grown from a standard weed seed pack of common annual and perennial weeds representing an extreme weed situation. The weeds included crabgrass (Digitaria sanguinalis), yellow nutsedge (Cyperus esculentus), […] (Ipomoea spp.), pigweed (Amaranthus spp.), and other annual weeds. Observations of the effects on the weed population as a whole were made, and individual observations were made for crabgrass, yellow nutsedge, sicklepod, morningglory, and pigweed. Stock solutions of hydrogen cyanamide at 1.25% by weight and citric acid at 5.0% by weight, both in water, were prepared, the hydrogen cyanamide from a phosphate-buffered 50% aqueous solution. […] Data analyses were performed in the same manner as Example 1. The results expressed in weeds per pot are listed in Table XIV for all weeds, Table XV for crabgrass, Table XVI for yellow nutsedge, Table XVII for sicklepod, Table XVIII for morningglory, and Table XIX for pigweed, all at various application rates for hydrogen cyanamide, with and without citric acid.

[3] = test system: crabgrass; assay: Herbicidal activity, cyanamide and propionic acid, pre-emergence, covered pots; assay type: in vivo, Digitaria sanguinalis
Experimental: as §1

[4] = test system: yellow nutsedge; assay: Herbicidal activity, cyanamide and citric acid, pre-emergence, covered pots; assay type: in vivo, Cyperus esculentus
Experimental: as §2

[5] = 8 d after treatment, cyanamide 75 mg/kg soil
[6] = 8 d after treatment, cyanamide 150 mg/kg soil
[7] = 14 d after treatment, cyanamide 75 mg/kg soil
[8] = 14 d after treatment, cyanamide 150 mg/kg soil
[9] = 20 d after treatment, cyanamide 75 mg/kg soil
[10] = 20 d after treatment, cyanamide 150 mg/kg soil
[11] = 27 d after treatment, cyanamide 75 mg/kg soil
[12] = 27 d after treatment, cyanamide 150 mg/kg soil
[13] = 13 d after treatment, cyanamide 50 mg/kg soil
[14] = 13 d after treatment, cyanamide 100 mg/kg soil
[15] = 13 d after treatment, cyanamide 150 mg/kg soil
[16] = 13 d after treatment, cyanamide 200 mg/kg soil
[17] = 13 d after treatment, cyanamide 250 mg/kg soil
[18] = 19 d after treatment, cyanamide 50 mg/kg soil
[19] = 19 d after treatment, cyanamide 100 mg/kg soil
[20] = 19 d after treatment, cyanamide 150 mg/kg soil
[21] = 19 d after treatment, cyanamide 200 mg/kg soil
[22] = 19 d after treatment, cyanamide 250 mg/kg soil
[23] = 26 d after treatment, cyanamide 50 mg/kg soil
[24] = 26 d after treatment, cyanamide 100 mg/kg soil
[25] = 26 d after treatment, cyanamide 150 mg/kg soil
[26] = 26 d after treatment, cyanamide 200 mg/kg soil
[27] = 26 d after treatment, cyanamide 250 mg/kg soil

## N#CN [Cyanamide, hydrogen cyanamide]
[1]; [5]
  Weeds Per Pot: Sicklepod: 1
[1]; [6]
  Weeds Per Pot: Sicklepod: 0.4
[1]; [7]
  Weeds Per Pot: Sicklepod: 1.9
[1]; [8]
  Weeds Per Pot: Sicklepod: 2.1
[1]; [9]
  Weeds Per Pot: Sicklepod: 2
[1]; [10]
  Weeds Per Pot: Sicklepod: 2.7
[1]; [11]
  Weeds Per Pot: Sicklepod: 2.4
[1]; [12]
  Weeds Per Pot: Sicklepod: 3.1
[2]; 9 d after treatment, cyanamide 50 mg/kg soil
  Weeds Per Pot: Crabgrass: 4.3
[2]; 9 d after treatment, cyanamide 100 mg/kg soil
  Weeds Per Pot: Crabgrass: 1.6
[2]; 9 d after treatment, cyanamide 150 mg/kg soil
  Weeds Per Pot: Crabgrass: 0
[2]; 9 d after treatment, cyanamide 200 mg/kg soil
  Weeds Per Pot: Crabgrass: 0
[2]; 9 d after treatment, cyanamide 250 mg/kg soil
  Weeds Per Pot: Crabgrass: 0
[2]; [13]
  Weeds Per Pot: Crabgrass: 7.4
[2]; [14]
  Weeds Per Pot: Crabgrass: 2.9
[2]; [15]
  Weeds Per Pot: Crabgrass: 0.4
[2]; [16]
  Weeds Per Pot: Crabgrass: 0
[2]; [17]
  Weeds Per Pot: Crabgrass: 0
[2]; [18]
  Weeds Per Pot: Crabgrass: 7.3
[2]; [19]
  Weeds Per Pot: Crabgrass: 3.4
[2]; [20]
  Weeds Per Pot: Crabgrass: 0.6
[2]; [21]
  Weeds Per Pot: Crabgrass: 0
[2]; [22]
  Weeds Per Pot: Crabgrass: 0
[2]; [23]
  Weeds Per Pot: Crabgrass: 9.6
[2]; [24]
  Weeds Per Pot: Crabgrass: 5.6
[2]; [25]
  Weeds Per Pot: Crabgrass: 1.4
[2]; [26]
  Weeds Per Pot: Crabgrass: 0
[2]; [27]
  Weeds Per Pot: Crabgrass: 0
[3]; [5]
  Weeds Per Pot: Crabgrass: 0
[3]; [6]
  Weeds Per Pot: Crabgrass: 0
[3]; [7]
  Weeds Per Pot: Crabgrass: 3.3
[3]; [8]
  Weeds Per Pot: Crabgrass: 0
[3]; [9]
  Weeds Per Pot: Crabgrass: 8.6
[3]; [10]
  Weeds Per Pot: Crabgrass: 3.7
[3]; [11]
  Weeds Per Pot: Crabgrass: 7.7
[3]; [12]
  Weeds Per Pot: Crabgrass: 4
[4]; [13]
  Weeds Per Pot: Yellow Nutsedge: 0.9
[4]; [14]
  Weeds Per Pot: Yellow Nutsedge: 0.4
[4]; [15]
  Weeds Per Pot: Yellow Nutsedge: 0.1
[4]; [16]
  Weeds Per Pot: Yellow Nutsedge: 0
[4]; [17]
  Weeds Per Pot: Yellow Nutsedge: 0
[4]; [18]
  Weeds Per Pot: Yellow Nutsedge: 2.4
[4]; [19]
  Weeds Per Pot: Yellow Nutsedge: 0.6
[4]; [20]
  Weeds Per Pot: Yellow Nutsedge: 0.6
[4]; [21]
  Weeds Per Pot: Yellow Nutsedge: 0
[4]; [22]
  Weeds Per Pot: Yellow Nutsedge: 0
[4]; [23]
  Weeds Per Pot: Yellow Nutsedge: 2.9
[4]; [24]
  Weeds Per Pot: Yellow Nutsedge: 1.7
[4]; [25]
  Weeds Per Pot: Yellow Nutsedge: 1.0
[4]; [26]
  Weeds Per Pot: Yellow Nutsedge: 0
[4]; [27]
  Weeds Per Pot: Yellow Nutsedge: 0
